Assays:
[1] = tested on: Puccinia recondita; experiment: In vivo preventive test on Puccinia recondita f. sp. tritici (wheat brown rust); settings: 50 g/ha of each active compound, evaluation 12 days after inoculation, 0% = control, 100% = no infection
Protocol: In Vivo Preventive Test on Puccinia Recondite f. Sp. Tritici (Wheat Brown Rust) [table] To produce a suitable preparation of active compound, 1 part by weight of active compound or active compound combination is mixed with the stated amounts of solvent and emulsifier, and the concentrate is diluted with water to the desired concentration. To test for preventive activity, young plants are […] at the stated rate of application. The plants remain for 24 hours in an incubation cabinet at 20° C. and a relative atmospheric humidity of 100%. The plants are placed in a greenhouse at a temperature of approximately 20° C. and a relative atmospheric humidity of approximately 80% to promote the development of rust pustules. Evaluation is carried out 12 days after the inoculation. 0% means an efficacy which corresponds to that of the control, whereas an efficacy of 100% means that no infection is observed. […] Compound 1 according to the invention is N-ethyl-N-methyl-N′-[4-(3-t-butyl-4-chlorphenoxy)-2,5 xylyl]-formamidine.

[2] = tested on: Pyrenophora teres; experiment: In vivo curative test on Pyrenophora teres (barley); settings: 50 g/ha of each active compound, evaluation 12 days after inoculation, 0% = control, 100% = no infection
Protocol: In Vivo Curative Test on Pyrenophora Teres (Barley) [table] To produce a suitable preparation of active compound, 1 part by weight of active compound or active compound combination is mixed with the stated amounts of solvent and emulsifier, and the concentrate is diluted with water to the desired concentration. To test for curative activity, young plants are sprayed with a conidia suspension of Pyrenophora teres. The plants remain in an incubation cabinet at 20° C. and 100% relative atmospheric humidity for 48 hours. The plants are then sprayed with the preparation of active compound at the stated application rate. The plants are placed in a greenhouse at a temperature of about 20° C. and a relative atmospheric humidity of about 80%. Evaluation is carried out 12 days after the inoculation. 0% means an efficacy which corresponds to that of the control, whereas an efficacy of 100% means that no infection is observed.

SMILES	Experimental efficacy (%) [1] [%]	Experimental efficacy (%) [2] [%]
CC(C)(C)C(O)(CCc1ccc(Cl)cc1)Cn1cncn1 (stereo not drawn) [tebuconazole]	78	
CCCN(CC)CC1COC2(CCC(C(C)(C)C)CC2)O1 (stereo not drawn) [spriroxamine, spiroxamine]	0	50
CCN(C)C=Nc1cc(C)c(Oc2ccc(Cl)c(C(C)(C)C)c2)cc1C [compound 1, N-ethyl-N-methyl-N′-[4-(3-t-butyl-4-chlorphenoxy)-2,5 xylyl]-formamidine]	22	0
OC(Cc1ccccc1Cl)(Cn1nc[nH]c1=S)C1(Cl)CC1 (stereo not drawn) [prothioconazole]		0
